Assay results: US20240391931A1 (Bristol-Myers Squibb Company, priority 2021, published 2024)
Counter-ions that a name gives are not always drawn. Like-named read-outs stand apart in the source and are kept apart here.

Legend:
[1] = target: HER2YVMA (Homo sapiens, UniProt P04626, INS775YVMA); assay: Enzymatic assay HER2YVMA (method b); assay type: biochemical; design: purchased Viva biotech, Shanghai, China custom purification; conditions: [HER2YVMA]=5 nM, [ATP]=25 μM, [Peptide 22]=1 μM
Protocol: (§1) A 2× stock solution of HER2 WT (ERBB2 0108-0000-1; ProQinase, Freiburg, Germany) corresponding to method a, was prepared as described below. Alternatively, a 2× stock solution of HER2YVMA (custom purification; Viva biotech, Shanghai, China) corresponding to method b, was prepared as described below. For method c, a 2× stock of EGFR (ERBB1 PR7295B, Thermo Fisher, Carlsbad, CA) was prepared as described below. All 2× solutions were prepared in buffer containing 50 mM HEPES, pH 7.5, 10 mM MnCl2, MgCl2, 0.005% Tween 20, 1 mM TCEP. 25 ul of 2× enzyme solution was added to a Seahorse low volume 384-well polypropylene assay plate (201288-100, Seahorse Bioscience, Chicopee, MA) containing 1 μl of compound serially diluted in 50% DMSO. To initiate the reaction, 25 μl of solution containing 2× final concentration of ATP and ProfilerPro Peptide 22 (760366, Perkin Elmer Hopkinton, MA) was added to each well. The reactions were separated on an LC3000 (Caliper Life Sciences) or a LabChip EZReader (Perkin Elmer) in kinetic mode.
(§2) At the conclusion of each assay, the data were exported from the instrument as a .rda file (LC3000) and processed in proprietary software, EZReviewer, which determines the percent of substrate converted to product within a given cycle as (P/P+S)*100 by measuring the amplitude of substrate and product peaks. Cycle time varied with amount of compounds tested between 8 and 12 cycles. Initial velocity (0-3600 s) from each reaction was determined from the slope of a plot of percent conversion at each cycle versus time (seconds). Percent inhibition was determined by dividing the slope of each reaction by the uninhibited control using 100*(1-(x/uninhibited control)). IC50 estimates were obtained by plotting the concentration of inhibitor versus percent inhibition in GraphPad Prism (GraphPad Software, San Diego, CA) using log[inhibitor] versus Response (Variable Slope Model); Y=Min+((Max-Min)/(1+((IC50/x)^Hillslope)))
(§3) • a) [HER2 WT]=12.5 nM, [ATP]=25 μM, [Peptide 22]=1 μM (ATP KMapp˜25 μM) • b) [HER2YVMA]=5 nM, [ATP]=25 μM, [Peptide 22]=1 μM (ATP KMapp˜15 μM) • c) [EGFR WT]=2 nM, [ATP]=1 mM, [Peptide 22]=1 μM (ATP KMapp˜25 μM)

[2] = target: EGFR (Homo sapiens, UniProt P00533); assay: EGFR signaling (pEGFR Tyr1068/total EGFR MSD) in A431 cells; assay type: cell-based; design: endogenous in cells; host or cells: A431, N87; conditions: for Selectivity A431 EC50/BT474 EC50: ratio A431 pEGFR EC50 to BT474 pHER2 EC50; for Selectivity A431 EC50/HEKYVMA EC50: ratio A431 pEGFR EC50 to HEK YVMA pHER2 EC50
Chain of EGFR (P00533 25-1210): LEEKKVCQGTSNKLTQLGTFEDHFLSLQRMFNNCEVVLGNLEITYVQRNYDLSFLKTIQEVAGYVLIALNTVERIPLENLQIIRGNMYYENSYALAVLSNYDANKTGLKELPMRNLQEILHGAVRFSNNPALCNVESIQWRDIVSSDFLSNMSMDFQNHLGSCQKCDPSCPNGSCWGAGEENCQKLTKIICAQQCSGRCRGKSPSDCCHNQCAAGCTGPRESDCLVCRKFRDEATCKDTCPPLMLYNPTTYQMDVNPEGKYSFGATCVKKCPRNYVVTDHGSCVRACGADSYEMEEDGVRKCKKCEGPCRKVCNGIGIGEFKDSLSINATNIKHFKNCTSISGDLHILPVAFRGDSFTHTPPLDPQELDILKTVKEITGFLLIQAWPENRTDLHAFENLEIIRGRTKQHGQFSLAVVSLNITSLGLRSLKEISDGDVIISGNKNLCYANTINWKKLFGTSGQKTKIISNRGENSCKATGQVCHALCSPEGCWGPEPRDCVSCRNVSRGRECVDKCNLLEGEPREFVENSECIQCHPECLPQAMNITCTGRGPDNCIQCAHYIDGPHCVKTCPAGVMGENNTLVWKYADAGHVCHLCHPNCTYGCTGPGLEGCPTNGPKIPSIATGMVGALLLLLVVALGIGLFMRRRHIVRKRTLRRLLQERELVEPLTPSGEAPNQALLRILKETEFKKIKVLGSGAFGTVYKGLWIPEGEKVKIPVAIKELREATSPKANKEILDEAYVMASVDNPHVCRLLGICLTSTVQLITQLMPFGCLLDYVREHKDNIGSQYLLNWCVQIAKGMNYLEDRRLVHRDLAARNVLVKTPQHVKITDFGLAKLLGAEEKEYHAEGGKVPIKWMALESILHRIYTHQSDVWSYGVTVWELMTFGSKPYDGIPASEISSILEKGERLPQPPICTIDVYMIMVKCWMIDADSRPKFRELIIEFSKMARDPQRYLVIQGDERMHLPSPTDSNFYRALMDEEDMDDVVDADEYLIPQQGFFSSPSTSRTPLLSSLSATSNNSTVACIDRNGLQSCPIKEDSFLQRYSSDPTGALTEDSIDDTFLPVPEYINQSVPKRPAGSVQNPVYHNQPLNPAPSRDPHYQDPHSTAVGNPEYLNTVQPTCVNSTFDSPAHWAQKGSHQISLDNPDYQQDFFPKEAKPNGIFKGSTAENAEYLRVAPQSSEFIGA
Protocol: In addition to the engineered cell lines, the following cell lines were used: BT474 (human breast carcinoma), N87 (human gastric carcinoma), NCI-H1781 (human lung adenocarcinoma), and A431 (human epidermoid carcinoma); all cell lines were obtained from the American Type Culture Collection (ATCC, Manassas, VA). NCI-H1781 were grown in complete RPMI 1640 (Life Technologies, Carlsbad, CA) supplemented with 15% fetal bovine serum (FBS, Life Technologies, Carlsbad, CA) and 1% Penicillin-Streptomycin (P/S, Life Technologies, Carlsbad, CA). N87 cells were grown in complete RPMI 1640 supplemented with 10% FBS and 1% P/S. BT474 and A431 cells were grown in DMEM (Life Technologies, Carlsbad, CA) supplemented with 10% FBS and 1% P/S. All cells were maintained and propagated in a humidified 5% CO2 incubator at 37° C.
A431 Cells were plated in 96-well tissue-culture treated plates in full media for 6 h, then starved with media containing 0.1% FBS for overnight. Media was replaced with low serum media (1% FBS) containing compound at 10, 3.3, 1.1, 0.37, 0.12, 0.041, 0.014, 0.005 μM or DMSO control (0.1%). Cells were incubated for 1.5 hr, then stimulated with 100 ng/mL human EGF (PeproTech, Rocky Hill, NJ) for 10 minutes. Cells were washed with cold PBS, and lysed for 30 min on ice in complete MSD lysis buffer (prepared as described in HER2 Signaling Method); lysates were stored at −70° C. until further analysis. EGFR signaling was evaluated using phospho (Tyr 1068)/total EGFR whole cell lysate kit (Meso-Scale Discovery, Gaithersburg, MD). The phospho EGFR signal was normalized to total EGFR for each sample; results are reported as % DMSO control. The normalized data was fitted using a sigmoidal curve analysis program (Graph Pad Prism version 6) with variable Hill slope to determine EC50 values. The results are provided in Table 4, under column titled “A431-pEGFR EC50”.

[3] = target: T1, EGFR WT (Homo sapiens, UniProt P00533); assay: Enzymatic assay EGFR WT (method c); assay type: biochemical; conditions: [EGFR WT]=2 nM, [ATP]=1 mM, [Peptide 22]=1 μM
T1 construct: purchased Thermo Fisher, Carlsbad, CA ERBB1 PR7295B
T1 sequence (P00533 25-1210): as above
Protocol: as §1, §2, §3

[4] = A431 cells, read-out: A431 pEGFR EC50

Chain of HER2YVMA (P04626 with tags, fused parts or gaps INS775YVMA): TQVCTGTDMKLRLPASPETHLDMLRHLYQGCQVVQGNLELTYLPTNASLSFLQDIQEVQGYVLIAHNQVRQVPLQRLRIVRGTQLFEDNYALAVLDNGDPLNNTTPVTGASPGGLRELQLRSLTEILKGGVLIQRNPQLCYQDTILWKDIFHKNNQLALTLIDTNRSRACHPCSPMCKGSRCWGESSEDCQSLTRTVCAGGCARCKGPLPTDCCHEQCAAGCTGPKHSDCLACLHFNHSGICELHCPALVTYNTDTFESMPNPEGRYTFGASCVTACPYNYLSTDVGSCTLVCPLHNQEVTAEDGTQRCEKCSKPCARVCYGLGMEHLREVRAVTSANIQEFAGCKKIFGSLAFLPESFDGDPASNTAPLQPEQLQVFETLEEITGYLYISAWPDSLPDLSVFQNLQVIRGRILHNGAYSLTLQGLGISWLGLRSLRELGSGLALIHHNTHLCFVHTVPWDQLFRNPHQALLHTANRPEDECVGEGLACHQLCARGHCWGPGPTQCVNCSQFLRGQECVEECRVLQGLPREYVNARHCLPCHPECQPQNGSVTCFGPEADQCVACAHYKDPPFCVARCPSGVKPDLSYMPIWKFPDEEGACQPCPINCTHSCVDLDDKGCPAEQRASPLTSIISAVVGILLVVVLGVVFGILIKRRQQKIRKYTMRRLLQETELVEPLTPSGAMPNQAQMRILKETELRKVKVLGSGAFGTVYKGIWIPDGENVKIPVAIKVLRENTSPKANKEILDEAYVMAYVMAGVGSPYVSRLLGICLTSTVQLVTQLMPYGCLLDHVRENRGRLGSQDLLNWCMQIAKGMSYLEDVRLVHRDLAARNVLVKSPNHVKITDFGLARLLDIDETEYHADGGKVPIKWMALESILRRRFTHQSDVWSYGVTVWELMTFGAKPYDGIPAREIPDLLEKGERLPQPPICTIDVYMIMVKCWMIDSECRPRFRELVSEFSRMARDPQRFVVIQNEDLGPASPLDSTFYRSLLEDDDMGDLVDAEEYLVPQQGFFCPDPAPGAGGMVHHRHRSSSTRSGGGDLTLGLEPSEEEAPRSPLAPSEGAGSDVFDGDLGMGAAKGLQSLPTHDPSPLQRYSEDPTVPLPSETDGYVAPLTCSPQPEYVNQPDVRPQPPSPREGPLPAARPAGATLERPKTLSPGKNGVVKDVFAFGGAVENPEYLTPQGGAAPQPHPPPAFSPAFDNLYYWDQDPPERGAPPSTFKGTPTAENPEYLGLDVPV

Row | Structure (SMILES) | IC50 [1] | EC50 [2, 4] | Selectivity A431 EC50/BT474 EC50 [2] | Selectivity A431 EC50/HEKYVMA EC50 [2] | IC50 [3] | EC50 ([2]; A431 pEGFR EC50, A431 cells)
1 | Cc1ccc(Oc2ccc(Nc3ncnc4sc5c(c34)C[C@@H](C)N(C(=O)/C=C/CN(C)C)[C@H]5C)cc2C)cn1 (racemic) [Compound 149, (E)-1-(6,8-cis-dimethyl-4-((3-methyl-4-((6-methylpyridin-3-yl)oxy)phenyl)amino)-5,8-dihydropyrido[4′,3′:4,5]thieno[2,3-d]pyrimidin-7(6H)-yl)-4-(dimethylamino)but-2-en-1-one] | < 0.1 µM | 0.1 to 1 µM | B (B: ≥ 20 and < 100) | D (D: ≥ 5 and < 10) | > 10 µM | –
2 | Cc1ccc(Oc2ccc(Nc3ncnc4sc5c(c34)C[C@@H](C)N(C(=O)/C=C/CN(C)C)[C@@H]5C)cc2C)cn1 (racemic) [Compound 165, (E)-1-(6,8-trans-dimethyl-4-((3-methyl-4-((6-methylpyridin-3-yl)oxy)phenyl)amino)-5,8-dihydropyrido[4′,3′:4,5]thieno[2,3-d]pyrimidin-7(6H)-yl)-4-(dimethylamino)but-2-en-1-one] | 0.1 to 1 µM | 1 to 10 µM | B (B: ≥ 20 and < 100) | D (D: ≥ 5 and < 10) | > 10 µM | –
3 | C=CC(=O)N1[C@H](C)Cc2c(sc3ncnc(Nc4ccc(Oc5ccc(C)nc5)c(C)c4)c23)[C@H]1C (racemic) [Compound 166, 1-(6,8-trans-dimethyl-4-((3-methyl-4-((6-methylpyridin-3-yl)oxy)phenyl)amino)-5,8-dihydropyrido[4′,3′:4,5]thieno[2,3-d]pyrimidin-7(6H)-yl)prop-2-en-1-one] | 0.1 to 1 µM | 0.1 to 1 µM | B (B: ≥ 20 and < 100) | C (C: ≥ 10 and < 20) | > 10 µM | –
4 | C=CC(=O)N1Cc2sc3ncnc(Nc4ccc(Oc5ccc(C)nc5)c(C)c4)c3c2C(C)C1 (single isomer, unassigned) [Compound 145] | < 0.1 µM | 0.1 to 1 µM | C (C: ≥ 10 and < 20) | E (E: >1 and < 5) | > 10 µM | –
5 | C=CC(=O)N1Cc2sc3ncnc(Nc4ccc(Oc5ccc(C)nc5)c(C)c4)c3c2C(C)C1 (single isomer, unassigned) [Compound 146] | < 0.1 µM | < 0.1 µM | C (C: ≥ 10 and < 20) | D (D: ≥ 5 and < 10) | 1 to 10 µM | –
6 | Cc1ccc(Oc2ccc(Nc3ncnc4sc5c(c34)C(C)N(C(=O)C=CCN(C)C)C5)cc2C)cn1 (single isomer, unassigned) [Compound 147] | < 0.1 µM | < 0.1 µM | B (B: ≥ 20 and < 100) | D (D: ≥ 5 and < 10) | > 10 µM | –
7 | Cc1ccc(Oc2ccc(Nc3ncnc4sc5c(c34)C(C)N(C(=O)C=CCN(C)C)C5)cc2C)cn1 (single isomer, unassigned) [Compound 148] | 1 to 10 µM | > 10 µM | B (B: ≥ 20 and < 100) | C (C: ≥ 10 and < 20) | > 10 µM | –
8 | COc1ccc(Oc2ccc(Nc3ncnc4sc5c(c34)C(C)CN(C(=O)C=CCN(C)C)C5)cc2C)cn1 (single isomer, unassigned) [Compound 159] | 0.1 to 1 µM | 0.1 to 1 µM | C (C: ≥ 10 and < 20) | E (E: >1 and < 5) | > 10 µM | –
9 | COc1ccc(Oc2ccc(Nc3ncnc4sc5c(c34)C(C)CN(C(=O)C=CCN(C)C)C5)cc2C)cn1 (single isomer, unassigned) [Compound 160] | < 0.1 µM | 0.1 to 1 µM | D (D: ≥ 5 and < 10) | D (D: ≥ 5 and < 10) | > 10 µM | –
10 | Cc1ccc(Oc2ccc(Nc3ncnc4sc5c(c34)CC(C)N(C(=O)C=CCN(C)C)C5C)cc2C)cn1 (single isomer, unassigned) [Compound 161] | < 0.1 µM | < 0.1 µM | D (D: ≥ 5 and < 10) | E (E: >1 and < 5) | > 10 µM | –
11 | Cc1ccc(Oc2ccc(Nc3ncnc4sc5c(c34)CC(C)N(C(=O)C=CCN(C)C)C5C)cc2C)cn1 (single isomer, unassigned) [Compound 162] | 1 to 10 µM | > 10 µM | B (B: ≥ 20 and < 100) | B (B: ≥ 20 and < 100) | > 10 µM | –
12 | Cc1ccc(Oc2ccc(Nc3ncnc4sc5c(c34)CN(C(=O)C=CCN(C)C)C5C)cc2C)cn1 (single isomer, unassigned) [Compound 169] | < 0.1 µM | 0.1 to 1 µM | C (C: ≥ 10 and < 20) | D (D: ≥ 5 and < 10) | > 10 µM | –
13 | Cc1ccc(Oc2ccc(Nc3ncnc4sc5c(c34)CN(C(=O)C=CCN(C)C)C5C)cc2C)cn1 (single isomer, unassigned) [Compound 170] | 1 to 10 µM | < 0.1 µM | B (B: ≥ 20 and < 100) | B (B: ≥ 20 and < 100) | > 10 µM | –
14 | Cc1ccc(Oc2ccc(Nc3ncnc4sc5c(c34)C(C)CN(C(=O)C=CCN3CCOCC3)C5)cc2C)cn1 (single isomer, unassigned) [Compound 176] | 0.1 to 1 µM | 1 to 10 µM | B (B: ≥ 20 and < 100) | B (B: ≥ 20 and < 100) | > 10 µM | –
15 | Cc1ccc(Oc2ccc(Nc3ncnc4sc5c(c34)C(C)CN(C(=O)C=CCN3CCOCC3)C5)cc2C)cn1 (single isomer, unassigned) [Compound 177] | < 0.1 µM | 0.1 to 1 µM | C (C: ≥ 10 and < 20) | D (D: ≥ 5 and < 10) | > 10 µM | –
16 | Cc1ccc(Oc2ccc(Nc3ncnc4sc5c(c34)CCN(C(=O)/C=C/CN3CC4CCC(C4)C3)C5)cc2C)cn1 [Compound 16, (E)-4-(3-azabicyclo[3.2.1]octan-3-yl)-1-(4-((3-methyl-4-((6-methylpyridin-3-yl)oxy)phenyl)amino)-5,8-dihydropyrido[4′,3′:4,5]thieno[2,3-d]pyrimidin-7(6H)-yl)but-2-en-1-one benzenesulfonate salt] | < 0.1 µM | – | D (D: ≥ 5 and < 10) | D (D: ≥ 5 and < 10) | – | 0.1 to 1 µM
